Assay results as given in patent US5254801A, “Heterologous dominant conditional lethal gene which is a phosphonate monoester hydrolase and use thereof in plants” (Monsanto Company, priority 1990, dated 1993).
“Also recorded” adds a separate entry of the source.

What was measured:
[1] = target: T1, phosphonate monoester hydrolase (PEH) (Trinickia caryophylli, UniProt Q45087); assay: Hydrolysis of protoxin to glyphosate by phosphonate monoester hydrolase; assay type: biochemical, Pseudomonas caryophilli PG2982
T1 sequence (Q45087 1-514): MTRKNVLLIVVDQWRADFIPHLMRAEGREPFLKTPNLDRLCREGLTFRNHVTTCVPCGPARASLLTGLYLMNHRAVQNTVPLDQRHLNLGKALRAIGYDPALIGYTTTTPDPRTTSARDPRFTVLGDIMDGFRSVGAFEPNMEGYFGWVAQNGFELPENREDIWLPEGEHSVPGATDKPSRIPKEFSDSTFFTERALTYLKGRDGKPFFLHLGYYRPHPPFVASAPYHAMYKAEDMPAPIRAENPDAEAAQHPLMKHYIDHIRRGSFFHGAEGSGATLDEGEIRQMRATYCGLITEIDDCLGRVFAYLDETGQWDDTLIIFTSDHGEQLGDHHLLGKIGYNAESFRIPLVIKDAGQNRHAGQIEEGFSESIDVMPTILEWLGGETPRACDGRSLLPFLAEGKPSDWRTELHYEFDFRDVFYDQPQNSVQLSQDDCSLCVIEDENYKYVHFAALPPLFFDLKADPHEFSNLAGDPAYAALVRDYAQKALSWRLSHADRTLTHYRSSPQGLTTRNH
Experimental: The critical tests for a prophytotoxin to be used in negative selection, cell ablation and as a gametocide are that the compound is non-phytotoxic per se but can be hydrolyzed into a phytotoxin by the phosphonate monoester hydrolase protein. The most general and specific method to determine if a protoxin is hydrolyzed to a toxic form of glyphosate is a HPLC assay. The compounds are dissolved at 100 mM concentration in a suitable buffer such as 10 mM TAPS, (N-Tris(hydroxymethyl)methyl-2-aminopropane sulfonic acid) pH 9.0. Triplicate samples (0.1 ml) of the compound are then diluted with 0.9 ml of 10 mM TAPS, pH 9.0 and with 0.9 ml 10 mM TAPS, pH 9.0 plus one unit (1 μmol/min) of enzyme. After 24 hour incubation at 25° C., the samples are injected onto a HPLC column for glyphosate analysis. […] The protoxin and glyphosate are separated on an anion exchange column. the glyphosate is oxidized as it elutes in the presence of bleach and is then derivatized by o-pthaldehyde to a fluorescent derivative which can be quantitatively measured by a fluorescence monitor. […] After two days, the plant is dissected into individual tissues and the amount of protoxin in each tissue determined. […] The tissue samples were then combusted and the amount of radiolabelled compound in each tissue determined by scintillation counting. […]

PG2982 = assay: In vivo (3-14C-) glyceryl glyphosate hydrolysis assay in whole cells; assay type: cell-based, Pseudomonas caryophilli; conditions: strain PG2982; three hour incubation, 30° C.
Experimental: Bacteria which grew in this medium using glyceryl glyphosate as a sole phosphate source had the ability to cleave both the ester and the phosphonate bond to release the free phosphate. For these bacteria to be useful in the present invention, the first step in the mineralization of glyceryl glyphosate needed is the hydrolysis of the phosphonate ester. Each of the three bacteria which utilized glyceryl glyphosate as a phosphate source were then assayed for a phosphonate monoester hydrolase activity using an in vivo (3-^14 C-) glyceryl glyphosate assay. A 150 ml culture of each bacteria was grown in DF minimal medium with 0.2 mM HK2 PO4 as a phosphate source in a 500 ml flask, 30° C., with shaking. The bacteria were pelleted by centrifugation at 5,000×g for 10 min and resuspended at 10 mg fresh weight/ml. An assay mix included 50 μl cells plus 10 μl (3-^14 C-) glyceryl glyphosate (10,000 cpm/μl) and kept at 30° C. with shaking. After a three hour incubation period, the cells were pelleted in a microfuge and the supernatant injected onto an HPLC anion exchange column and glyphosate analyzed as described above. The pellet was washed twice with 1 ml 10 mM HEPES, pH 7.0, and resuspended in 25 μl buffer. The cells were lysed with 25 μl quench and the debris pelleted in a microfuge. The pellet extract was then analyzed for glyphosate product as described above. […]

## O=C(O)CNCP(=O)(O)OCC(O)CO (centres unmarked) [glyceryl glyphosate, glycine, N-([hydroxy (2,3 dihydroxy propoxy)phosphonyl]methyl)]
[1]
  Substrate for / hydrolysis by phosphonate monoester hydrolase: is a substrate for the phosphonate monoester hydrolases; also recorded: hydrolyze the glyceryl glyphosate into glycerol and glyphosate
PG2982
  In vivo Hydrolysis of Glyceryl Glyphosate into Glyphosate: Yes
